# Measurements: patent US8829185B2 (Bayer HealthCare LLC, priority 2005, dated 2014)
# Molecular target: T1, FGFR1-GST (Homo sapiens, UniProt P11362)
# T1 construct: GST; made in house
# Experiment: FGFR-1 TR-FRET biochemical assay
# Experimental: FGFR-1 TR-FRET Biochemical Assay
# The FGFR-1 Assay was performed on half well 96-well opaque plates (Costar 3915) in a LANCE format. LANCE is a homogenous time resolved fluormetry based application available through Perkin Elmer. For this assay, 50 uL reactions were set up using: 0.6 uM ATP (Sigma), 25 nM poly GT-biotin (CIS BIO International), 2 nM Eu-labelled phospho-Tyr Ab (PY20 PerkinElmer), 10 nM Streptavidin-APC (Perkin Elmer), 5 nM FGFR1-GST (generated by DRT, Bayer Healthcare), 1% DMSO, 50 mM HEPES pH 7.5, 10 mM MgCl2, 0.1 mM EDTA, 0.015% Brij, 0.1 mg/ml BSA, 0.1% B-mercaptoethanol. All reactions were initiated with the addition of enzyme and were left to incubate for one hour at room temperature. Time-resolved fluorescence was then read on a Perkin Elmer VictorV Multilabel counter. The reading protocol uses an excitation wavelength at 340 nm and emission reads at both 615 and 665 nm. Signal was calculated as a ratio: (Fluorescence at 665 nm/Fluorescence at […])*10000 for each well. The background control used for this assay is the signal produced with all assay components excluding ATP. For IC50 generation, compounds were added prior to the enzyme initiation. A 50-fold stock plate was made with compounds serially diluted 1:5 in a 50% DMSO/50% dH2O solution. A 1 μL addition of the stock to the assay wells gave final compound concentrations ranging from 10 μM −0.128 nM in 1% DMSO. The data were expressed as percent inhibition: % inhibition=100−((Signal with inhibitor-background)/(Signal without inhibitor−background))*100.
# T1 sequence (P11362 22-822): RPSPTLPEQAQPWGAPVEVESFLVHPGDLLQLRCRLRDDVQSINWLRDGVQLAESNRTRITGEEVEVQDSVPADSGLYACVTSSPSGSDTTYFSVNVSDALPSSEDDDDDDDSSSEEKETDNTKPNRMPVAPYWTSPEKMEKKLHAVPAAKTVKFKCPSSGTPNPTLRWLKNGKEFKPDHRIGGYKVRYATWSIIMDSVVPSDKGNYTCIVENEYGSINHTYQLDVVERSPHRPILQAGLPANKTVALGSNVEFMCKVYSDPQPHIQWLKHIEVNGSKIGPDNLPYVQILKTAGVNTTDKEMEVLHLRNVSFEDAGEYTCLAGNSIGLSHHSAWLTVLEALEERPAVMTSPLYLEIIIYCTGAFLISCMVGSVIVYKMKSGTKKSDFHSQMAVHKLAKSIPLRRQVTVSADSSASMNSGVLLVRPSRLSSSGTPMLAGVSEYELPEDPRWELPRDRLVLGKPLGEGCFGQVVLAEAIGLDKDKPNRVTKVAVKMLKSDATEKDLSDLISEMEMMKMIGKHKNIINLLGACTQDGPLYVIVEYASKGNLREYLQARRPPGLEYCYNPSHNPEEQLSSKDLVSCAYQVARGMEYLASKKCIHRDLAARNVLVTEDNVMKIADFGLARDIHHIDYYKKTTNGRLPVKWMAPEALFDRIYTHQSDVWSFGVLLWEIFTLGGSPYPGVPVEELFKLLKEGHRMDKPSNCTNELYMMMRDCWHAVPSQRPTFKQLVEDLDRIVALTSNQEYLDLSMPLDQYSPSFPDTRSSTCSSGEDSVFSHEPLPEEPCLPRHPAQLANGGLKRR
SMILES,IC50 (bounds given in nM),IC50 (upper bound in μM)
"CN1CCN(Cc2c(-c3cnco3)c(-c3ccc(NC(=O)Nc4cc(C(F)(F)F)ccc4F)cc3)c3c(N)ncnn23)CC1 [Example 31, N-4-[4-amino-7-[(4-methylpiperazin-1-yl)methyl]-6-(1,3-oxazol-5-yl)pyrrolo[2,1-f][1,2,4]triazin-5-yl]phenyl-N′-[2-fluoro-5-(trifluoromethyl)phenyl]urea]",< 10 nM,
"CCOC(=O)c1c(-c2ccc(NC(=O)Nc3cc(C(F)(F)F)ccn3)cc2)c2c(N)ncnn2c1-c1ccc(OC)cc1 [Example 4, ethyl 4-amino-7-(4-methoxyphenyl)-5-{4-[({[4-(trifluoromethyl)pyridin-2-yl]amino}carbonyl)amino]-phenyl}pyrrolo[2,1-f][1,2,4]triazine-6-carboxylate]",10 to 100 nM,
"COCc1c(-c2ccc(NC(=O)Nc3cc(C(F)(F)F)ccn3)cc2)c2c(N)ncnn2c1CN1CCOCC1 [Example 35, N-4-[4-amino-6-(methoxymethyl)-7-(morpholin-4-ylmethyl)pyrrolo[2,1-f][1,2,4]triazin-5-yl]phenyl-N′-[4-(trifluoromethyl)pyridin-2-yl]urea]",10 to 100 nM,
"CC(=O)c1c(-c2ccc(NC(=O)Nc3cc(C(F)(F)F)ccn3)c(F)c2)c2c(N)ncnn2c1CN1CCOCC1 [Example 60, N-4-[6-acetyl-4-amino-7-(morpholin-4-ylmethyl)pyrrolo[2,1-f][1,2,4]triazin-5-yl]-2-fluorophenyl-N′-[4-(trifluoromethyl)pyridin-2-yl]urea]",< 10 nM,
"COCc1c(-c2ccc(NC(=O)Nc3cc(C(F)(F)F)ccc3F)cc2)c2c(N)ncnn2c1CNC1CC1 [Example 16, N-{4-[4-amino-7-[(cyclopropylamino)methyl]-6-(methoxymethyl)pyrrolo[2,1-f][1,2,4]triazin-5-yl]phenyl}-N′-[2-fluoro-5-(trifluoromethyl)phenyl]urea]",10 to 100 nM,
"CC(=O)c1c(-c2ccc(NC(=O)Nc3cc(C(F)(F)F)ccc3F)c(F)c2)c2c(N)ncnn2c1CN1CCOCC1 [Example 57, N-4-[6-acetyl-4-amino-7-(morpholin-4-ylmethyl)pyrrolo[2,1-f]-[1,2,4]triazin-5-yl]-2-fluorophenyl-N′-[2-fluoro-5-(trifluoromethyl)phenyl]urea]",10 to 100 nM,
"COCc1c(-c2ccc(NC(=O)Nc3cc(C(F)(F)F)ccn3)cc2)c2c(N)ncnn2c1CN1CCC(F)(F)CC1 [Example 40, N-{4-[4-amino-7-[(4,4-difluoropiperidin-1-yl)methyl]-6-(methoxymethyl)pyrrolo[2,1-f][1,2,4]triazin-5-yl]phenyl}-N′-[4-(trifluoromethyl)pyridin-2-yl]urea]",> 100 nM,< 1000 nM
"Nc1ncnn2c(CN3CCOCC3)c(-c3cnco3)c(-c3ccc(NC(=O)Nc4cc(F)cc(C(F)(F)F)c4)cc3)c12 [Example 29, N-4-[4-amino-7-(morpholin-4-ylmethyl)-6-(1,3-oxazol-5-yl)pyrrolo[2,1-f][1,2,4]triazin-5-yl]phenyl-N′-[3-fluoro-5-(trifluoromethyl)phenyl]urea]",< 10 nM,
"N#CCc1c(-c2ccc(NC(=O)Nc3cc(C(F)(F)F)ccn3)cc2)c2c(N)ncnn2c1CN1CCNC(=O)C1 [Example 66, N-(4-{4-amino-6-(cyanomethyl)-7-[(3-oxopiperazin-1-yl)methyl]-pyrrolo[2,1-f][1,2,4]triazin-5-yl}phenyl)-N′-[4-(trifluoromethyl)pyridin-2-yl]urea]",< 10 nM,
"Nc1ncnn2c(CN3CCOCC3)c(-c3cnco3)c(-c3ccc(NC(=O)Nc4cccc(OC(F)(F)F)c4)cc3)c12 [Example 28, N-4-[4-amino-7-(morpholin-4-ylmethyl)-6-(1,3-oxazol-5-yl)pyrrolo[2,1-f][1,2,4]triazin-5-yl]phenyl-N′-[3-(trifluoromethoxy)-phenyl]urea]",< 10 nM,

# Results, then the molecule that gave them:
IC50 (bounds given in nM),IC50 (upper bound in μM),SMILES
10 to 100 nM,,"Nc1ncnn2c(CN3CCOCC3)c(C(=O)C3CC3)c(-c3ccc(NC(=O)Nc4cc(C(F)(F)F)ccn4)cc3)c12 [Example 89, N-{4-[4-amino-6-(cyclopropylcarbonyl)-7-(morpholin-4-ylmethyl)pyrrolo[2,1-f][1,2,4]triazin-5-yl]phenyl}-N′-[4-(trifluoromethyl)pyridin-2-yl]urea]"
10 to 100 nM,,"CCC(=O)c1c(-c2ccc(NC(=O)Nc3cc(C(F)(F)F)ccn3)cc2)c2c(N)ncnn2c1CN1CCOCC1 [Example 90, N-{4-[4-amino-7-(morpholin-4-ylmethyl)-6-propionylpyrrolo[2,1-f][1,2,4]triazin-5-yl]phenyl}-N′-[4-(trifluoromethyl)-pyridin-2-yl]urea]"
> 100 nM,< 1000 nM,"COCCNCc1c(-c2ccc(NC(=O)Nc3cc(C(F)(F)F)ccc3F)cc2)c2c(N)ncnn2c1CN1CCOCC1 [Example 108, N-4-[4-amino-6-[(2-methoxyethyl)amino]methyl-7-(morpholin-4-ylmethyl)pyrrolo[2,1-f][1,2,4]triazin-5-yl]phenyl-N′-[2-fluoro-5-(trifluoromethyl)phenyl]urea]"
< 10 nM,,"Nc1ncnn2c(CN3CCOCC3)c(Cl)c(-c3ccc(NC(=O)Nc4cc(C(F)(F)F)ccc4F)cc3)c12 [Example 154, N-{4-[4-amino-6-chloro-7-(morpholin-4-ylmethyl)pyrrolo[2,1-f][1,2,4]triazin-5-yl]phenyl}-N′-[2-fluoro-5-(trifluoromethyl)phenyl]urea]"
> 100 nM,< 1000 nM,"CON(C)C(=O)c1c(-c2ccc(NC(=O)Nc3cc(C(F)(F)F)ccn3)cc2)c2c(N)ncnn2c1CN1CCN(C)CC1 [Example 94, 4-amino-N-methoxy-N-methyl-7-[(4-methylpiperazin-1-yl)methyl]-5-{4-[({[4-(trifluoromethyl)pyridin-2-yl]amino}-carbonyl)amino]-phenyl}pyrrolo[2,1-f][1,2,4]triazine-6-carboxamide]"
10 to 100 nM,,"COCc1c(-c2ccc(NC(=O)Nc3cc(C(F)(F)F)ccc3F)c(F)c2)c2c(N)ncnn2c1C1CCNCC1 [Example 149, 1-{4-[4-amino-6-(methoxymethyl)-7-piperidin-4-ylpyrrolo[2,1-f][1,2,4]triazin-5-yl]-2-fluorophenyl}-3-[2-fluoro-5-(trifluoro-methyl)phenyl]urea]"
< 10 nM,,"COCc1c(-c2ccc(NC(=O)Nc3cccc(C(C)(C)C)c3)c(F)c2)c2c(N)ncnn2c1CN1CCOCC1 [Example 138, N-{4-[4-amino-6-(methoxymethyl)-7-(morpholin-4-ylmethyl)-pyrrolo[2,1-f][1,2,4]triazin-5-yl]-2-fluorophenyl}-N′-(3-tert-butylphenyl)urea]"
< 10 nM,,"N#CCc1c(-c2ccc(NC(=O)Nc3cc(C(F)(F)F)ccc3F)c(F)c2)c2c(N)ncnn2c1CN1CCS(=O)(=O)CC1 [Example 79, N-(4-{4-amino-6-(cyanomethyl)-7-[(1,1-dioxidothiomorpholin-4-yl)methyl]pyrrolo[2,1-f][1,2,4]triazin-5-yl}-2-fluorophenyl)-N′-[2-fluoro-5-(trifluoromethyl)phenyl]urea]"
< 10 nM,,"Cc1ccc(F)c(NC(=O)Nc2ccc(-c3c(Cl)c(CN4CCOCC4)n4ncnc(N)c34)cc2F)c1 [Example 161, N-{4-[4-amino-6-chloro-7-(morpholin-4-ylmethyl)pyrrolo[2,1-f][1,2,4]triazin-5-yl]-2-fluorophenyl}-N′-(2-fluoro-5-methylphenyl)urea]"
10 to 100 nM,,"CN1CCN(Cc2c(CC#N)c(-c3ccc(NC(=O)Nc4cc(C(F)(F)F)ccc4F)cc3)c3c(N)ncnn23)CC1 [Example 74, N-(4-{4-amino-6-(cyanomethyl)-7-[(4-methylpiperazin-1-yl)methyl]pyrrolo[2,1-f][1,2,4]triazin-5-yl}phenyl)-N′-[2-fluoro-5-(trifluoromethyl)phenyl]urea]"
< 10 nM,,"Nc1ncnn2c(CN3CCOCC3)c(C(F)F)c(-c3ccc(NC(=O)Nc4cc(C(F)(F)F)ccn4)c(F)c3)c12 [Example 116, N-{4-[4-amino-6-(difluoromethyl)-7-(morpholin-4-ylmethyl)-pyrrolo[2,1-f][1,2,4]triazin-5-yl]-2-fluorophenyl}-N′-[4-(trifluoromethyl)pyridin-2-yl]urea]"
10 to 100 nM,,"Nc1ncnn2c(CN3CCOCC3)c(CO)c(-c3ccc(NC(=O)Nc4cc(C(F)(F)F)ccn4)c(F)c3)c12 [Example 114, N-{4-[4-amino-6-(hydroxymethyl)-7-(morpholin-4-ylmethyl)pyrrolo[2,1-f][1,2,4]triazin-5-yl]-2-fluorophenyl}-N′-[4-(trifluoromethyl)pyridin-2-yl]urea]"
> 100 nM,< 1000 nM,"CON(C)C(=O)c1c(-c2ccc(NC(=O)Nc3cc(C(F)(F)F)ccn3)cc2)c2c(N)ncnn2c1CN1CCOCC1 [Example 97, 4-amino-N-methoxy-N-methyl-7-(morpholin-4-ylmethyl)-5-{4-[({[4-(trifluoromethyl)pyridin-2-yl]amino}carbonyl)-amino]phenyl}pyrrolo[2,1-f][1,2,4]triazine-6-carboxamide]"
< 10 nM,,"Cc1cc(-c2c(C)c(CN3CCCOCC3)n3ncnc(N)c23)ccc1NC(=O)Nc1cc(C(F)(F)F)ccn1 [Example 124, N-{4-[4-amino-6-methyl-7-(1,4-oxazepan-4-ylmethyl)pyrrolo[2,1-f][1,2,4]triazin-5-yl]-2-methylphenyl}-N′-[4-(trifluoromethyl)pyridin-2-yl]urea]"
